Experimental findings from ChEMBL document CHEMBL4622929 (Bioorg Med Chem Lett, 2020) are described below.

pKi: −log10 of the molar value.

Assay [1] deals with Adenosine receptor A2a (Rattus norvegicus) (UniProt P30543). Kind of assay: Displacement of [3H]NECA from Sprague-Dawley rat striatal membrane A2A adenosine receptor at 100 uM by scintillation counting analysis relative to control. The class given is cell membranes. To be noted: Striatum. (In a radioligand displacement assay an active substance lowers the binding of a labelled ligand.)

The target of assay [2] is T1, Adenosine receptor A1 (Rattus norvegicus) (UniProt P25099).
T1 sequence (whole entry): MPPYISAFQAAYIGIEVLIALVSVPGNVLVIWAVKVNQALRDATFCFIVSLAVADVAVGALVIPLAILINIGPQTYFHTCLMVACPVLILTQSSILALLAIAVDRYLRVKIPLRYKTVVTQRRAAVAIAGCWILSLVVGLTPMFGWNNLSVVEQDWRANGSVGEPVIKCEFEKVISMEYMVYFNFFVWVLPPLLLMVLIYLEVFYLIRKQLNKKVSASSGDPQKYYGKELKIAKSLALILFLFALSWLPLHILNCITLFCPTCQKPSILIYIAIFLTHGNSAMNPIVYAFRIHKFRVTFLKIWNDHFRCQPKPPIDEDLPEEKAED
Kind of assay: Displacement of [3H]DPCPX from Sprague-Dawley rat whole brain membrane A1AR at 100 uM by scintillation counting analysis relative to control. The class given is cell membranes.

Assay [3] deals with T2, Adenosine receptor A1 (Rattus norvegicus, UniProt P25099).
T2 sequence (P25099 whole entry): T1 sequence (whole entry)
Kind of assay: Displacement of [3H]DPCPX from Sprague-Dawley rat whole brain membrane A1AR in presence of GTP by radioligand binding assay. The format is cell membranes.

The target of assay [4] is T2, Adenosine receptor A1. Kind of assay: Displacement of [3H]DPCPX from Sprague-Dawley rat whole brain membrane A1AR by scintillation counting analysis. The class given is cell membranes.
The next assay has as its target Adenosine receptor A2a (Rattus norvegicus, UniProt P30543). Kind of assay: Displacement of [3H]NECA from Sprague-Dawley rat striatal membrane A2A adenosine receptor by scintillation counting analysis. The format is cell membranes, Striatum.
Assay [5] deals with T1, Adenosine receptor A1 (Rattus norvegicus). The assay can be described thus: Ratio of Ki for displacement of [3H]DPCPX from Sprague-Dawley rat whole brain membrane A1AR in presence of GTP to Ki for displacement of [3H]DPCPX from Sprague-Dawley rat whole brain A1AR. The class given is cell membranes.
The species entered for another assay is Rattus norvegicus. Kind of assay: Selectivity index, ratio of Ki for Sprague-Dawley rat striatal membrane A2 adenosine receptor to Ki for Sprague-Dawley rat whole brain A1 adenosine receptor.

Chain of Adenosine receptor A2a (Rattus norvegicus) (P30543 whole entry): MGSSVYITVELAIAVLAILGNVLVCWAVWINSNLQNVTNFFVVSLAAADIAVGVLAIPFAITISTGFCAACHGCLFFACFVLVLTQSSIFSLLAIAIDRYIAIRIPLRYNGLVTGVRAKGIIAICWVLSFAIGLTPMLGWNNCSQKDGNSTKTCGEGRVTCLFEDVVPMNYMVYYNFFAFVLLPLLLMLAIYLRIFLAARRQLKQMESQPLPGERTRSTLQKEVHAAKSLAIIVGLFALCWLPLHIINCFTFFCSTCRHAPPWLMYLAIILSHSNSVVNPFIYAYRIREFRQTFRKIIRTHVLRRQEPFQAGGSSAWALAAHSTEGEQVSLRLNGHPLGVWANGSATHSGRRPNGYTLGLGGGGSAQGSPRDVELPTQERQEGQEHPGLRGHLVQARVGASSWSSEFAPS
Chain of Adenosine receptor A2a (P30543 whole entry): as above

As a reminder, the inhibition is the percentage by which the read-out fell short of the control. As for `COc1ccc(-c2nc(O)c3ccccc3n2)cc1`, the inhibition in assay [1] is 79%; in assay [2], 44%.

Broadly, the pKi is the Ki on a negative log10 scale, so that one unit is a factor of ten. For the molecule `Cc1ccc(-c2nc3ccccc3c(=O)[nH]2)cc1`, the pKi was 5.53 at Adenosine receptor A1 [3], 5.60 on Adenosine receptor A1 [4] and less than 4.00 at Adenosine receptor A2a. In assay [1], this molecule displayed an inhibition of 55%. In addition, in assay [5], the Ratio Ki is 1.18.

As to `O=c1oc(-c2ccc(Cl)cc2)nc2ccccc12`, the pKi at Adenosine receptor A1 [4] and on Adenosine receptor A2a was less than 4.00 each time. Also, the inhibition in assay [1] was 81%; in assay [2], 86%.

For the molecule `Oc1nc(-c2cccs2)nc2ccccc12`, the pKi on Adenosine receptor A1 [4] and on Adenosine receptor A2a was less than 4.00 each time. In addition, the inhibition in assay [1] came out at 30%; in assay [2], 39%.

Turning to `O=c1oc(-c2cccs2)nc2ccccc12`, the pKi at Adenosine receptor A1 [4] was 4.49; on Adenosine receptor A2a, less than 4.00. For the same molecule, the inhibition in assay [1] was 59%.

For the molecule `COc1ccc(-c2nc3ccccc3c(=O)[nH]2)cc1`, the pKi at Adenosine receptor A1 [4] and at Adenosine receptor A2a was less than 4.00 throughout.

In the case of `O=c1oc(-c2ccco2)nc2ccccc12`, the negative-log Ki (pKi) on Adenosine receptor A1 [4] and on Adenosine receptor A2a was less than 4.00 throughout. For the same molecule, the values for the inhibition in assay [1] and in assay [2] were 66% and 42%, respectively.

`O=c1[nH]c(-c2ccccc2)cc2ccccc12`: the pKi at Adenosine receptor A1 [4] and on Adenosine receptor A2a was less than 4.00 in each case.

Consider `Oc1nc(-c2ccccc2)cc2ccccc12`, for which the inhibition in assay [1] and in assay [2] was 100% in each case.

As to `O=c1oc(-c2ccc(Br)cc2)nc2ccccc12`, the negative logarithm of the Ki (pKi) at Adenosine receptor A1 [4] and at Adenosine receptor A2a was less than 4.00 in each case. Further, the results for the inhibition in assay [1] and in assay [2] were 92% and 95%, respectively.

In the case of `O=c1[nH]c(-c2ccco2)nc2ccccc12`, the values for the pKi on Adenosine receptor A1 [3], at Adenosine receptor A1 [4] and at Adenosine receptor A2a were 5.23, 5.34 and 5.09, respectively. Moreover, the Ratio Ki turned out to be 1.76 in the assay listed under Rattus norvegicus and 1.23 in assay [5].

Take `Oc1nc(-c2ccc(F)cc2)nc2ccccc12`: the pKi on Adenosine receptor A1 [4] and at Adenosine receptor A2a was less than 4.00 throughout. The inhibition in assay [1] stood at 62%; in assay [2], 50%.

`CCOc1ccc(-c2nc3ccccc3c(=O)o2)cc1`: the pKi at Adenosine receptor A1 [4] and at Adenosine receptor A2a was less than 4.00 each time. In addition, the inhibition worked out at 77% in assay [1] and 99% in assay [2].

As to `O=c1oc2ccccc2cc1-c1ccccc1`, the pKi on Adenosine receptor A1 [4] and at Adenosine receptor A2a was less than 4.00 throughout. The inhibition stood at 77% in assay [1] and 51% in assay [2].

As for `O=c1[nH]c(-c2ccc(Cl)cc2)nc2ccccc12`, the pKi on Adenosine receptor A1 [4] and at Adenosine receptor A2a was less than 4.00 each time. Besides, the inhibition in assay [1] is 82%; in assay [2] it was 54%.

For the molecule `O=C1OC(c2ccccc2)Nc2ccccc21` (centres undefined), the pKi on Adenosine receptor A1 [3] was 5.24; at Adenosine receptor A1 [4] it was 5.30; on Adenosine receptor A2a it was less than 4.00. The inhibition in assay [1] came to 69%. For the same molecule, in assay [5], the Ratio Ki worked out at 1.12.

Take `O=c1[nH]c(-c2ccc(Br)cc2)nc2ccccc12`: the negative logarithm of the Ki (pKi) at Adenosine receptor A1 [4] and on Adenosine receptor A2a was less than 4.00 each time. Further, the inhibition in assay [1] is 84%; in assay [2], 98%.

Regarding `O=c1[nH]c(/C=C/c2ccccc2)nc2ccccc12`, the pKi at Adenosine receptor A1 [4] and on Adenosine receptor A2a was less than 4.00 throughout. Further, the inhibition was found to be 56% in assay [1] and 100% in assay [2].

`COc1ccc(-c2nc3ccccc3c(=O)o2)cc1`: the pKi on Adenosine receptor A1 [4] and on Adenosine receptor A2a was less than 4.00 each time. Besides, the inhibition in assay [1] amounted to 37%; in assay [2], 54%.

Take `O=c1oc(-c2ccc(F)cc2)nc2ccccc12`: the pKi at Adenosine receptor A1 [4] and at Adenosine receptor A2a was less than 4.00 throughout. The inhibition came to 70% in assay [1] and 100% in assay [2].

Consider `COc1ccc(-c2nc(O)c3ccccc3n2)cc1OC`, for which the pKi at Adenosine receptor A1 [4] is less than 4.00; at Adenosine receptor A2a, 5.55. This molecule returned an inhibition in assay [2] of 67%.

Consider `O=c1oc2ccccc2nc1-c1ccccc1`, for which the results for the negative-log Ki (pKi) at Adenosine receptor A1 [4] and on Adenosine receptor A2a were 4.76 and less than 4.00, respectively. The molecule further came in with an inhibition in assay [1] of 91%.

As for `Cc1ccc(-c2nc3ccccc3c(=O)o2)cc1`, the pKi at Adenosine receptor A1 [4] and at Adenosine receptor A2a was less than 4.00 throughout. The inhibition worked out at 77% in assay [1] and 84% in assay [2].

For `OC[C@H]1O[C@@H](n2cnc3c(NC4CCCC4)ncnc32)[C@H](O)[C@@H]1O` [N6-CYCLOPENTYLADENOSINE], the pKi at Adenosine receptor A2a was 6.25.

With `O=c1oc(/C=C/c2ccccc2)nc2ccccc12`, the pKi at Adenosine receptor A1 [4] and at Adenosine receptor A2a was less than 4.00 in each case. In addition, the results for the inhibition in assay [1] and in assay [2] were 85% and 56%, respectively.

For the molecule `O=c1oc(-c2ccccc2)nc2ccccc12`, the pKi was 5.16 at Adenosine receptor A1 [3], 5.20 at Adenosine receptor A1 [4] and less than 4.00 on Adenosine receptor A2a. Also, the inhibition in assay [1] came to 49%. Further, the Ratio Ki in assay [5] is 1.09.
